“And” between values parts separate entries of the source, which are not always exact repeats. Equal entries are not always repeated. Where two headings read alike, the source gives them in different places.
Key:
SARS-CoV-2 M^pro [1] = biological target: T1, SARS-CoV-2 M^pro (Severe acute respiratory syndrome coronavirus 2, UniProt P0DTD1); assay: biochemical; details: M^pro from pMal-M^pro vector
SARS-CoV-2 M^pro [2] = biological target: T1, SARS-CoV-2 M^pro; assay: Mpro FRET inhibition, continuous fluorometric assay (Fluorolog-3), enzyme from pET21-M^pro vector; type: biochemical; details: read-out: Ki (μM)^b
M^pro [3] = biological target: T2, M^pro (Severe acute respiratory syndrome coronavirus 2, UniProt P0DTD1); assay: biochemical; type: binding
[4] = calibration compound; cited from earlier work
M^pro [5] = biological target: T2, M^pro; type: biochemical; details: for Fluorescence reading (progress curve): triplicate wells
Method: Buffer: 20 mM Tris, 0.1 mM EDTA, 1 mM DTT, 200 mM NaCl pH = 7.5. For the dilution assay Nirmatrelvir[21] was used as a reversible control and LM188[54] as an irreversible control (Fig. 10).
The incubation was done at RT for 30 min in assay buffer. DMSO was used as a control. After incubation the Enzyme/Inhibitor (or DMSO) mixtures were diluted 100-fold in assay buffer.
The preincubation was done in assay buffer (20 mM Tris, 0.1 mM EDTA, 1 mM DTT, 200 mM NaCl, pH = 7.5), at RT for 30 min. After incubation the mixtures were diluted […]
proteolytic activity of the enzyme was measured as described for the enzymatic assays using the […]
activity was measured over 1 h.
Inhibition assay58. Trypsin: Enzyme: bovine trypsin purchased from Sigma-Aldrich (St. Louis, […]
Substrate: Cbz-FR-AMC purchased from Bachem (Bubendorf, Switzerland), [Substrate]: 40 µM […]
The activity against bovine trypsin was tested at 20 µM inhibitor concentration. […]

SARS-CoV-2 = assay: microbe, parasite or virus in culture; type: cell-based; details: for EC50: Huh-7-ACE2, 24h p.t., MOI=0.1; for virus titer Mean (%): mean of Exp.1-3; for virus titer (pfu/ml) / virus titer (%) of conc 0: single experiments
[6] = biological target: human matriptase (MT-SP1) (Homo sapiens, UniProt Q9Y5Y6); assay: Matriptase inhibition, fluorometric assay; type: biochemical; details: 20 μM
[7] = biological target: Zika Virus NS2B/NS3 (bZiPro) (Zika virus, UniProt A0A024B7W1); assay: Zika virus protease inhibition, fluorometric assay; type: biochemical; details: 20 μM
rhodesain (RhD) = biological target: T3, rhodesain (RhD) (Trypanosoma brucei rhodesiense, UniProt Q95PM0); assay: Rhodesain inhibition, fluorometric assay; type: biochemical; details: read-out: Ki RhD
T3 construct: made in house

cruzain (CRZ) = cruzain (CRZ) (Trypanosoma cruzi, UniProt P25779); assay: Cruzain inhibition, fluorometric assay; type: biochemical; details: read-out: Ki CRZ
cathepsin L (CatL) = biological target: T4, cathepsin L (CatL) (Homo sapiens, UniProt P07711); assay: Cathepsin L inhibition, fluorometric assay; type: biochemical; details: read-out: Ki CatL
T4 construct: purchased Calbiochem (Merck Millipore)

cathepsin B (CatB) = biological target: T5, cathepsin B (CatB) (Homo sapiens, UniProt P07858); assay: Cathepsin B inhibition, fluorometric assay; type: biochemical; details: read-out: Ki CatB
T5 construct: purchased Calbiochem (Merck Millipore)

M^pro [8] = biological target: T2, M^pro; assay: Binding to M^pro by ultracentrifugation (sedimentation method)
in vitro = details: human

Chain of Zika Virus NS2B/NS3 (bZiPro) (A0A024B7W1 1425-1464): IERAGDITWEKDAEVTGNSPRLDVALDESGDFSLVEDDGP
Chain of Zika Virus NS2B/NS3 (bZiPro) (A0A024B7W1 1503-1680): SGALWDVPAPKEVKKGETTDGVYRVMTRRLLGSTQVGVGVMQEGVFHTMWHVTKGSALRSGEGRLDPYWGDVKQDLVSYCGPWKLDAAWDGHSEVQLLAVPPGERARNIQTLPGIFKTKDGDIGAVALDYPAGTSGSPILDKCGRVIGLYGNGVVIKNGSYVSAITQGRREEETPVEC
T3 sequence (Q95PM0 entry or part of it): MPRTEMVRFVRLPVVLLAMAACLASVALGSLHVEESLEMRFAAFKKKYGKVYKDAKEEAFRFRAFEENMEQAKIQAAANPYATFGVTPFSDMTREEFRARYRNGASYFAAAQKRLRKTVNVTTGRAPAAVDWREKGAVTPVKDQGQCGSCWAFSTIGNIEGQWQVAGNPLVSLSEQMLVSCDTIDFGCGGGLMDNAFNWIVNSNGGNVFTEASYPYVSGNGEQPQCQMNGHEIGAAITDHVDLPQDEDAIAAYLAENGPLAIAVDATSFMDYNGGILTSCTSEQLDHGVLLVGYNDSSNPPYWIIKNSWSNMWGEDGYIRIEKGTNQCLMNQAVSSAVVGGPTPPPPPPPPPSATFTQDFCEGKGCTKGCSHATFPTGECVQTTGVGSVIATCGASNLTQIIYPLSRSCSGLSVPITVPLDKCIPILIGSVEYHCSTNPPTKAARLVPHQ
Chain of cruzain (CRZ) (P25779 123-467): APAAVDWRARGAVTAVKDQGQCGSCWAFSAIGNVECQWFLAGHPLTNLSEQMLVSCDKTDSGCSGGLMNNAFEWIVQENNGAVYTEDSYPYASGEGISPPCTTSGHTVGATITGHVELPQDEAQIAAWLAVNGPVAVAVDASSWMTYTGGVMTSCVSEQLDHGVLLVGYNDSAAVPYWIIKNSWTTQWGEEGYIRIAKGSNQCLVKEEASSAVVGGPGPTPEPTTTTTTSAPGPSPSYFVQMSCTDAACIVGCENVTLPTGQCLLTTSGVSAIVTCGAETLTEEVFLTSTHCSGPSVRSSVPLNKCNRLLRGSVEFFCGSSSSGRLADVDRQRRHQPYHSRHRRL
T4 sequence (P07711 114-288 limits assumed): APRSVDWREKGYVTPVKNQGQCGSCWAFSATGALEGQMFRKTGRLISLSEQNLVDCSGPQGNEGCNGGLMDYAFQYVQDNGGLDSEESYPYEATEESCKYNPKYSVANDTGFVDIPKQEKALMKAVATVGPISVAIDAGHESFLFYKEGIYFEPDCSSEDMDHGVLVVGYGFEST
T4 sequence (P07711 292-333 limits assumed): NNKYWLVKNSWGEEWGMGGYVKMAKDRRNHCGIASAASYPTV
Chain of human matriptase (MT-SP1) (Q9Y5Y6 615-855 limits assumed, other chains not shown): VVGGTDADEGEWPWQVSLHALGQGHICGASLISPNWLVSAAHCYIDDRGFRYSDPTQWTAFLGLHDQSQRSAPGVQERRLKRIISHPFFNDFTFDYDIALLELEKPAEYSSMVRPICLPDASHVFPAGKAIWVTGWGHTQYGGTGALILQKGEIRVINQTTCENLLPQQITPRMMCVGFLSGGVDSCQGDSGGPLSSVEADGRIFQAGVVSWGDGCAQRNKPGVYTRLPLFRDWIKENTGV

CC(C)C[C@H](NC(=O)[C@@H](NC(=O)[C@H](C)NC(=O)OC(C)(C)C)C(C)C)C(=O)N[C@H](/C=C/[N+](=O)[O-])CCc1ccccc1 [FGA159]
Ki (SARS-CoV-2 M^pro [1]): 21.8 ± 1.5 µM | Ki (SARS-CoV-2 M^pro [2]): 1.19 ± 0.18 µM | ΔTm at 5 µM (M^pro [3]; 5 µM, read-out: DTm (°C)): 2.6 °C | ΔTm at 25 µM (M^pro [3]; 25 µM, read-out: DTm (°C)): 2.5 °C | change of Tm of M^pro (M^pro [3]; concentration range between 5 and 100 μM): 2.5 ± 0.2 °C

CCCC(=O)c1ccccc1 [Butyrophenone]
Chromatographic Hydrophobicity Index (publication) [4]: 88.49

CC(C)CC(NC(=O)C=Cc1ccccc1)C(=O)NC(C=C[N+](=O)[O-])CCc1ccccc1 (centres unmarked) [FGA177]
inhibition at 20 µM (SARS-CoV-2 M^pro [1]): 25% | Ki (SARS-CoV-2 M^pro [2]): 8.59 ± 1.6 µM | ΔTm at 25 µM (M^pro [3]; 25 µM, read-out: DTm (°C)): 0.1 °C | change of Tm of M^pro (M^pro [3]; range of 25 to 100 μM): 0.1 ± 0.2 °C

CCC(=O)c1ccccc1 [Propiophenone]
Chromatographic Hydrophobicity Index (publication) [4]: 78.41

c1ccc2[nH]cnc2c1 [Benzimidazole]
Chromatographic Hydrophobicity Index (publication) [4]: 30.71

Cn1c(=O)c2[nH]cnc2n(C)c1=O [Theophylline]
Chromatographic Hydrophobicity Index (publication) [4]: 15.76

CCCCC(=O)c1ccccc1 [Valerophenone]
Chromatographic Hydrophobicity Index (publication) [4]: 97.67

O=C(N[C@@H](Cc1ccccc1)C(=O)N[C@H](/C=C/[N+](=O)[O-])CCc1ccccc1)OCc1ccccc1 [FGA86]
inhibition at 20 µM (SARS-CoV-2 M^pro [1]): 17% | Ki (SARS-CoV-2 M^pro [2]): 2.67 ± 0.29 µM | change of Tm of M^pro (M^pro [3]; 25 µM): 0.9 ± 0.4 °C | ΔTm at 25 µM (M^pro [3]; 25 µM, read-out: DTm (°C)): 0.9 °C | change of Tm of M^pro (M^pro [3]; 100 μM): −1.7 ± 0.4 °C

COc1cccc2[nH]c(C(=O)N[C@@H](CC(C)C)C(=O)N[C@H](/C=C/S(=O)(=O)c3ccccc3)C[C@@H]3CCNC3=O)cc12 [LM188, reference compound]
Fluorescence reading (progress curve) (M^pro [5]; Time 180.071 s): 253 and 247 | Fluorescence reading (progress curve) (M^pro [5]; Time 210.081 s): 256 and 250 | Fluorescence reading (progress curve) (M^pro [5]; Time 240.095 s): 254 and 247 | Fluorescence reading (progress curve) (M^pro [5]; Time 270.113 s): 256 and 248 | Fluorescence reading (progress curve) (M^pro [5]; Time 300.118 s): 253 and 248 and 250 | Fluorescence reading (progress curve) (M^pro [5]; Time 330.126 s): 256 and 248 and 247 | Fluorescence reading (progress curve) (M^pro [5]; Time 360.134 s): 249 and 246 and 248 | Fluorescence reading (progress curve) (M^pro [5]; Time 390.141 s): 253 and 250 and 249 | Fluorescence reading (progress curve) (M^pro [5]; Time 420.149 s): 251 and 247 and 248 | Fluorescence reading (progress curve) (M^pro [5]; Time 450.157 s): 255 and 249 and 250 | Fluorescence reading (progress curve) (M^pro [5]; Time 480.18 s): 255 and 244 | Fluorescence reading (progress curve) (M^pro [5]; Time 2881.2 s): 249 and 222 and 233 | Fluorescence reading (progress curve) (M^pro [5]; Time 2911.21 s): 247 and 222 and 232 | Fluorescence reading (progress curve) (M^pro [5]; Time 2941.22 s): 252 and 222 and 230 | Fluorescence reading (progress curve) (M^pro [5]; Time 2971.24 s): 250 and 221 and 231 | Fluorescence reading (progress curve) (M^pro [5]; Time 3001.25 s): 248 and 221 and 233 | Fluorescence reading (progress curve) (M^pro [5]; Time 3031.26 s): 247 and 219 and 231 | Fluorescence reading (progress curve) (M^pro [5]; Time 3061.27 s): 249 and 220 and 232 | Fluorescence reading (progress curve) (M^pro [5]; Time 3091.28 s): 249 and 219 and 230 | Fluorescence reading (progress curve) (M^pro [5]; Time 3121.29 s): 250 and 222 and 232 | Fluorescence reading (progress curve) (M^pro [5]; Time 3151.3 s): 246 and 219 and 232 | Fluorescence reading (progress curve) (M^pro [5]; Time 3181.31 s): 246 and 220 and 232 | Fluorescence reading (progress curve) (M^pro [5]; Time 3211.32 s): 246 and 221 and 231 | Fluorescence reading (progress curve) (M^pro [5]; Time 3241.33 s): 243 and 219 and 230 | Fluorescence reading (progress curve) (M^pro [5]; Time 3271.34 s): 248 and 221 and 229 | Fluorescence reading (progress curve) (M^pro [5]; Time 3301.35 s): 245 and 216 and 230 | Fluorescence reading (progress curve) (M^pro [5]; Time 3331.36 s): 246 and 218 and 230 | Fluorescence reading (progress curve) (M^pro [5]; Time 3361.37 s): 243 and 219 and 232 | Fluorescence reading (progress curve) (M^pro [5]; Time 3391.39 s): 244 and 216 and 230 | Fluorescence reading (progress curve) (M^pro [5]; Time 3421.39 s): 241 and 217 and 230 | Fluorescence reading (progress curve) (M^pro [5]; Time 3451.41 s): 245 and 215 and 227 | Fluorescence reading (progress curve) (M^pro [5]; Time 3481.42 s): 249 and 217 and 230 | Fluorescence reading (progress curve) (M^pro [5]; Time 3511.43 s): 242 and 218 and 229 | Fluorescence reading (progress curve) (M^pro [5]; Time 3541.44 s): 244 and 216 and 229 | Fluorescence reading (progress curve) (M^pro [5]; Time 3571.45 s): 243 and 214 and 228 | recovery of M^pro activity after 100-fold dilution (M^pro [5]; preincubation 30 min): no visible recovery of activity

CC(C)CC(NC(=O)C=Cc1ccccc1)C(=O)NC(C=C[N+](=O)[O-])CC1CCNC1=O (centres unmarked) [FGA145]
Ki (SARS-CoV-2 M^pro [1]): 3.71 ± 0.38 µM | Ki (SARS-CoV-2 M^pro [2]): 9.82 ± 1.5 µM | EC50 (SARS-CoV-2): 11.7 µM | EC50 (SARS-CoV-2; Severe acute respiratory syndrome coronavirus 2, 24 h): 11.7 µM | virus titer Mean (%) (SARS-CoV-2; conc 0.1): 99% | virus titer (pfu/ml) (SARS-CoV-2; conc 0.1): 1400000 pfu/ml and 1000000 pfu/ml and 1070000 pfu/ml | virus titer Mean (%) (SARS-CoV-2; conc 0.5): 119% | virus titer (%) of conc 0 (SARS-CoV-2; conc 0.5): 160% and 90% and 107% | virus titer (pfu/ml) (SARS-CoV-2; conc 0.5): 1600000 pfu/ml and 1800000 pfu/ml and 1070000 pfu/ml | virus titer Mean (%) (SARS-CoV-2; conc 1): 120% | virus titer (pfu/ml) (SARS-CoV-2; conc 1): 1400000 pfu/ml and 1500000 pfu/ml | virus titer Mean (%) (SARS-CoV-2; conc 5): 108.333% | virus titer (%) of conc 0 (SARS-CoV-2; conc 5): 120% and 75% and 130% | virus titer (pfu/ml) (SARS-CoV-2; conc 5): 1200000 pfu/ml and 1500000 pfu/ml and 1300000 pfu/ml | virus titer Mean (%) (SARS-CoV-2; conc 10): 25.6667% | virus titer (pfu/ml) (SARS-CoV-2; conc 10): 400000 pfu/ml and 200000 pfu/ml and 270000 pfu/ml | virus titer Mean (%) (SARS-CoV-2; conc 50): 0.07467% | virus titer (%) of conc 0 (SARS-CoV-2; conc 50): 0.2% and 0.01% and 0.014% | virus titer Mean (%) (SARS-CoV-2; conc 100): 0.017% | virus titer (%) of conc 0 (SARS-CoV-2; conc 100): 0.006% and 0.02% and 0.025% | MT-SP1 [6]: n.i. (no inhibition (<10%) was observed at a concentration of 20 μM) | bZiPro [7]: n.i. (no inhibition (<10%) was observed at a concentration of 20 μM) | Ki (rhodesain (RhD)): 0.00163 ± 0.00022 µM | Ki (cruzain (CRZ)): 0.0126 ± 0.0015 µM | Ki (cathepsin L (CatL)): 0.053 ± 0.0041 µM | Ki (cathepsin B (CatB)): 0.206 ± 0.041 µM | change of Tm of M^pro (M^pro [3]; 25 µM): −1.1 ± 0.2 °C | ΔTm at 25 µM (M^pro [3]; 25 µM, read-out: DTm (°C)): -1.1 °C | change of Tm of M^pro (M^pro [3]; 100 μM): −3.7 ± 0.1 °C | Fraction bound, Absorption (M^pro [8]; ligand concentration 0.5): 0.01689 | Fraction bound, Absorption (M^pro [8]; ligand concentration 1): 0.05068 | Fraction bound, Absorption (M^pro [8]; ligand concentration 5): 0.2419 | Fraction bound, Absorption (M^pro [8]; ligand concentration 10): 0.373 | Fraction bound, Absorption (M^pro [8]; ligand concentration 25): 0.7297 | Fraction bound, Absorption (M^pro [8]; ligand concentration 50): 0.9595 | Fraction bound, Absorption (M^pro [8]; ligand concentration 100): 1.009 | Kd (M^pro [8]; ultracentrifugation, 25 °C): 11.8 ± 1.05 µM | CC50 (in vitro): > 100 µM

CC(=O)c1ccccc1 [Acetophenone]
Chromatographic Hydrophobicity Index (publication) [4]: 64.90

c1ccc(-c2nnn[nH]2)cc1 [Phenyltetrazole]
Chromatographic Hydrophobicity Index (publication) [4]: 20.18
